For eight molecules, IC50 results are on record in BindingDB's records for doi:10.1016/s0960-894x(99)00489-8 (Glaxowellcome Medicines Research Centre, 1999).

In test [1] the target is Human cytomegalovirus protease (assemblin) (Human herpesvirus 5). As to the kind of experiment: Inhibitory activity against HCMV protease by SPA assay.
Test [2] has the same target. As to the kind of experiment: Inhibitory activity against HCMV protease by HPLC assay.
The target is the same in test [3]. The description is as above. This is another data set of the same source.

Usually IC50 stands for the midpoint of a concentration-inhibition curve. Lower therefore signals greater potency. Regarding `CC(=O)C(C(C)=O)C1=C(Cl)C(=O)c2ccccc2C1=O` [2-(1-Acetyl-2-oxo-propyl)-3-chloro-[1,4]naphthoquinone], the IC50 in test [1] was found to be 0.8 µM; in test [2] it was 0.72 µM.

As to `CC(=O)C(C(=O)OCc1ccccc1)C1=C(Cl)C(=O)c2ccccc2C1=O` (configuration not stated) [2-(3-Chloro-1,4-dioxo-1,4-dihydro-naphthalen-2-yl)-3-oxo-butyric acid benzyl ester], the figures for the half-inhibitory concentration (IC50) in test [1] and in test [2] were 0.73 µM and 0.7 µM, respectively.

Turning to `CCOC(=O)C(C(C)=O)C1=C(Cl)C(=O)c2ccccc2C1=O` (configuration not stated) [2-(3-Chloro-1,4-dioxo-1,4-dihydro-naphthalen-2-yl)-3-oxo-butyric acid ethyl ester], the IC50 is 1.45 µM in test [1] and 4.8 µM in test [2].

Take `CC(=O)C(C(=O)OC(C)C)C1=C(Cl)C(=O)c2ccccc2C1=O` (configuration not stated) [2-(3-Chloro-1,4-dioxo-1,4-dihydro-naphthalen-2-yl)-3-oxo-butyric acid isopropyl ester]: the IC50 in test [1] was 2.68 µM; in test [2], 9.1 µM.

`CC1(C)CC(=O)C(C2=C(Cl)C(=O)c3ccccc3C2=O)C(=O)C1` [2-Chloro-3-(4,4-dimethyl-2,6-dioxo-cyclohexyl)-[1,4]naphthoquinone] gave an IC50 in test [3] of 150 µM.

In the case of `O=C1C(Cl)=C(C2CCCCCC2)C(=O)c2ccccc21` [2-Chloro-3-cycloheptyl-[1,4]naphthoquinone], the IC50 in test [3] amounted to 67 µM.

In test [3], `O=C1C(OC2CCCCC2)=C(C2CCCCC2)C(=O)c2ccccc21` [2-Cyclohexyl-3-cyclohexyloxy-[1,4]naphthoquinone] displayed an IC50 of 110 µM. Against the preceding molecule, the IC50 is about 1.6-fold higher.

In turn, `COC(=O)CC1=C(Cl)C(=O)c2ccccc2C1=O` [(3-Chloro-1,4-dioxo-1,4-dihydro-naphthalen-2-yl)-acetic acid methyl ester] showed an IC50 in test [3] of 148 µM.
